{"source": "paper PMC8230474", "about": "“Synthesis of Novel Acyl Derivatives of 3-(4,5,6,7-Tetrabromo-1H-benzimidazol-1-yl)propan-1-ols—Intracellular TBBi-Based CK2 Inhibitors with Proapoptotic Properties” (International Journal of Molecular Sciences, 2021)", "key": {"MCF-7 cells [1]": {"system": "MCF-7 cells", "test": "Cell cycle progression by flow cytometry, MCF-7", "type": "cell-based, human", "settings": "MCF-7, 72 h, compound at its EC50"}, "[2]": {"system": "protein kinase CK2 in MCF-7 cells", "test": "Intracellular inhibition of CK2, Western blot of p-Ser529 p65 and p-Ser129 Akt1, MCF-7", "type": "cell-based, human", "description": "We observed an inhibition of CK2 in both cell lines; however, the lower efficiency of CK2 inhibition was detected in MCF-7 considering the extent of Akt1 phosphorylation. The relative level of the phosphorylation of the tested proteins in MDA-MB-231 cells was in the range of 0.32 to 0.80 for p-Ser529 p65 and 0.41 to 0.73 for p-Ser129 Akt1, whereas in MCF-7 cells it was in the range of 0.33 to 0.78 for p-Ser529 p65 and 0.82 to 1.23 for p-Ser129 Akt1, respectively. The lowest phosphorylation levels of the tested proteins were detected in MDA-MB-231 cells for compound 6b with the relative level of 0.41 for Ser129 Akt1 as well as for compound 6c with the relative level of 0.32 for p-Ser529 p65. Among the tested proteins, the lowest extent of phosphorylation in MCF-7 cells was detected for 6b with the relative level of 0.33 for p-Ser529 p65, and for 6a with the relative level of 0.82 for Ser129 Akt1.\nConsidering an inefficient inhibition of CK2 in MCF-7, we evaluated an inhibition of CK2 in this cell line after 72 h. […] The relative levels were in the range of 0.17 to 0.8 for p-Ser529 p65 and 0.19 to 0.79 for p-Ser129 Akt1.\nThe MCF-7 cells growing exponentially were seeded at 4.8 × 10^5 cells in 6-cm-diameter plates. Subsequently, compounds were added in a final concentration of 0.5% DMSO. After incubation, floating cells were collected and cell monolayer was washed three times in ice-cold PBS and the cells were scraped, combined with floating cells and lysed in RIPA buffer consisting of 50 mM Tris-HCl (pH 7.4), 1% NP-40, 0.5% sodium deoxycholate, 0.1% SDS, 150 mM NaCl, 2 mM EDTA, 50 mM NaF, 0.2 mM sodium orthovanadate, and protease inhibitors cocktail. Subsequently, cells were sonicated (three times for 15 s), centrifuged at 20,000× g for 15 min at 4 °C, and the supernatants were collected and stored at −80 °C. The protein concentration was determined using Bradford assay. Then, supernatants were incubated with the Laemmli buffer for 5 min at 98 °C. Equal amounts of total protein (10 to 20 μg) were analyzed by SDS-PAGE, and subsequently, Western blotting was performed using primary antibodies in blocking buffer containing either 3% BSA (bovine serum albumin) or 3% milk in TBS-T (Tris-buffered saline (10 mM Tris-HCl (pH 8), 150 mM NaCl) containing 0.1% Tween 20 or 0.2% Triton X-100) for 1 h. After overnight incubation at 4 °C with the primary antibodies, the membranes were washed with TBS-T and probed with the respective secondary antibodies. The ECL substrate was used for detection and immunoblots were scanned using G Box Chemi (Syngene, Cambridge, UK) with GeneSys software (Syngene, Cambridge, UK) or were developed with the use of X-rays films. UV-irradiated Jurkat cells were used as a positive control in Western blot analysis of c-PARP1. After 2 h, one-minute UV-irradiated Jurkat leukemic T-cell line was lysed and subjected to analysis.\nFor densitometry, immunoblots were quantified using the Fiji distribution of the ImageJ 1.52a software (National Institutes of Health, Bethesda, MD, USA, and the University of Wisconsin, Madison, WI, USA). Phosphorylated protein densities were normalized to GAPDH densities, assuming 1 for untreated cells and then they were converted to a percent of the appropriate control."}, "MCF-7 cells [3]": {"system": "MCF-7 cells", "test": "MTT viability assay, MCF-7", "type": "cell-based", "settings": "Homo sapiens, read-out: EC50 ± SD MCF-7", "description": "To test the anti-cancer effect of the TBBi derivatives, we treated the MCF-7 and MDA-MB-231 cells with the newly synthesized esters and previously reported compounds [34, 57] at the concentration range of 3.125 to 200 µM for 24 h, 48 h and 72 h. Additionally, the range of concentrations was extended by additional lower concentrations in MCF-7 for compound 4 with the minimum concentration of 0.195 µM. […] The EC50 values, describing the half maximal effective concentration of each tested compound, were calculated and are summarized in Table 2. […] We observed that the EC50 values increase in both cell lines with the elongation of fatty acids chain length in the tested compounds, thus strongly correlating with the decrease of their solubility in biological media as characterized by logS parameter (Table 2). The second reason for the decreased biological activity of the longer-chain aliphatic esters might be attributed to their greater resistance toward intracellular hydrolysis, which directly influences the slower release of the active form of the corresponding CK2 inhibitors. […] However, none of the tested compounds, except for compound 5, decreased the viability of both cell lines in a time-dependent manner (Figure 4).\nMCF-7 and MDA-MB-231 were cultured in high-glucose Dulbecco’s modified Eagle medium (DMEM, Lonza, Basel, Switzerland) supplemented with 10% fetal bovine serum (FBS, EuroClone, Siziano, Italy)), 2 mM L-glutamine, and antibiotics (100 U/mL penicillin, 100 µg/mL streptomycin) (Sigma-Aldrich Chemical Company (St. Louis, MO, USA). Cells were grown in 75-cm^2 cell culture flasks (Sarstedt, Nümbrecht, Germany) in a humidified atmosphere of CO2/air (5%/95%) at 37 °C. All the experiments were performed in exponentially growing cultures. Stock solutions of the test compounds were prepared in DMSO and stored in −80 °C for a maximum of one month. For the cytotoxicity studies, stock solutions of the tested compounds were diluted 200-fold with the proper culture medium to obtain the final concentrations.\nAfter incubation with the tested compounds, an MTT test was performed as described previously. Optical densities were measured at 570 nm using BioTek microplate reader (Winooski, VT, USA). All measurements were carried out in a minimum of three biological replicates."}, "[4]": {"settings": "MCF-7, 72 h treatment, compound at its EC50, relative to untreated control"}}, "note": "Where two headings read alike, the source gives them in different places."}
{"smiles": "CCCCCC(=O)OCCCn1c(C)nc2c(Br)c(Br)c(Br)c(Br)c21", "note": "[Compound 6b, (4,5,6,7-Tetrabromo-2-methyl-1H-benzimidazol-1-yl)propyl hexanoate]", "values": [{"measurement": "cells in G1", "setting": "MCF-7 cells [1]", "value": 50.1, "unit": "%"}, {"measurement": "cells in G2M", "setting": "MCF-7 cells [1]", "value": 19.9, "unit": "%"}, {"measurement": "cells in S", "setting": "MCF-7 cells [1]", "value": 30.0, "unit": "%"}, {"measurement": "relative level of p-Ser529 p65", "setting": "[2]; MCF-7, 24 h treatment, compound at its 72-h EC50, relative to untreated control", "value": 0.33}, {"measurement": "EC50", "setting": "MCF-7 cells [3]; MCF7, 24 h", "value": "22.4 ± 1.12", "unit": "µM"}, {"measurement": "EC50", "setting": "MCF-7 cells [3]; MCF7, 48 h", "value": "18.59 ± 0.18", "unit": "µM"}, {"measurement": "EC50", "setting": "MCF-7 cells [3]; MCF7, 72 h", "value": "18.3 ± 2.86", "unit": "µM"}]}
{"smiles": "CCCCCCCC(=O)OCCCn1cnc2c(Br)c(Br)c(Br)c(Br)c21", "note": "[Compound 3c, 3-(4,5,6,7-Tetrabromo-1H-benzimidazol-1-yl)propyl octanoate]", "values": [{"measurement": "cells in G1", "setting": "MCF-7 cells [1]", "value": 59.4, "unit": "%"}, {"measurement": "cells in G2M", "setting": "MCF-7 cells [1]", "value": 11.0, "unit": "%"}, {"measurement": "cells in S", "setting": "MCF-7 cells [1]", "value": 29.6, "unit": "%"}, {"measurement": "relative level of p-Ser129 Akt1", "setting": "[2]; [4]", "value": 0.19}, {"measurement": "relative level of p-Ser529 p65", "setting": "[2]; [4]", "value": 0.17}, {"measurement": "EC50", "setting": "MCF-7 cells [3]; MCF7, 24 h", "value": "24.3 ± 0.25", "unit": "µM"}, {"measurement": "EC50", "setting": "MCF-7 cells [3]; MCF7, 48 h", "value": "21.1 ± 1.23", "unit": "µM"}, {"measurement": "EC50", "setting": "MCF-7 cells [3]; MCF7, 72 h", "value": "29.9 ± 1.45", "unit": "µM"}]}
